The values below come from patent US20060030569A1, “Diarylmethyl piperazine derivatives, preparations thereof and uses thereof” (AstraZeneca AB, priority 2004, published 2006).

Structures are written as SMILES. Where two headings read alike, the source gives them in different places.

One experiment has as its target T1, cloned human κ receptors (Homo sapiens, UniProt P41145).
T1 construct: expressed in transfected cells; host or cells: human 293S (HEK 293S) cells
The experiment in a line: Binding assay, displacement of 125I-DPDYN (IC50hk).

Experiment [1] deals with T2, δ receptors in rat brain membranes (Rattus norvegicus, UniProt P33533).
T2 construct: membranes from BEK-293S cells expressing the cloned human opioid receptors or from homogenised rat or mouse brain; from tissue; host or cells: rat brain
T2 sequence (P33533 whole entry): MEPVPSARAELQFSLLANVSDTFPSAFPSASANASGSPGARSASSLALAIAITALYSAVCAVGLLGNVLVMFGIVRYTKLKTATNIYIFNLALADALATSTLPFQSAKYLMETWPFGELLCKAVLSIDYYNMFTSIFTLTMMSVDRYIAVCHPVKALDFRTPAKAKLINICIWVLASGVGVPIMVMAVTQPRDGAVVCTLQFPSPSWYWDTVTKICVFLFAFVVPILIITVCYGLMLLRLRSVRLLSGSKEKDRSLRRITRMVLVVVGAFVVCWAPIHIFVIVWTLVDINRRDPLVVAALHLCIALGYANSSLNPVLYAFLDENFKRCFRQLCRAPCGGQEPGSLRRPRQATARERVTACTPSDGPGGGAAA
The experiment in a line: Rat brain functional assay, GTPγ35S binding. The format is biochemical. Particulars: for Emax: in relation to SNC80, read-out: EC50rb Emax. Here is the method:
Rat brains are weighed and rinsed in ice-cold PBS (containing 2.5 mM EDTA, pH 7.4). The brains are homogenized with a polytron for 30 sec (rat) in ice-cold lysis buffer (50 mM Tris, pH 7.0, 2.5 mM EDTA, with phenylmethylsulfonyl fluoride added just prior use to […] from a 0.5 M stock in DMSO:ethanol).
(§1) The agonist activity of the compounds is measured by determining the degree to which the compounds receptor complex activates the binding of GTP to G-proteins to which the receptors are coupled. In the GTP binding assay, GTP[γ]^35S is combined with test compounds and membranes from BEK-293S cells expressing the cloned human opioid receptors or from homogenised rat or mouse brain. Agonists stimulate GTP[γ]^35S binding in these membranes. The EC50 and Emax values of compounds are determined from dose-response curves. Right shifts of the dose response curve by the delta antagonist naltrindole are performed to verify that agonist activity is mediated through delta receptors. For human δ receptor functional assays, EC50 (low) is measured when the human δ receptors used in the assay were expressed at lower levels in comparison with those used in determining EC50 (high).
(§2) Rat brain membranes are thawed at 37° C., passed 3 times through a 25-gauge blunt-end needle and diluted in the GTPγS binding (50 mM Hepes, 20 mM NaOH, 100 mM NaCl, 1 mM EDTA, 5 mM MgCl2, pH 7.4, Add fresh: 1 mM DTT, 0.1% BSA). 120 μM GDP final is added membranes dilutions. […] The basal and maximal stimulated binding are determined in absence and presence of 3 μM SNC80. The assay performed on HEK 293S cells stably expressing cloned Delta receptors is done in a slightly different buffer (50 mM Hepes, 20 mM NaOH, 200 mM NaCl, 1 mM EDTA, 5 mM MgCl2, pH 7.4, Add fresh: 0.5% BSA, no DTT) and with a 3 μM final conc. of GDP.

Another experiment concerns the target T3, cloned human μ receptors (Homo sapiens, UniProt P35372).
T3 construct: expressed in transfected cells; host or cells: human 293S (HEK 293S) cells
The experiment in a line: Binding assay, displacement of 125I-FK33824 (IC50hm).

Another experiment has as its target T4, cloned human δ receptors (Homo sapiens, UniProt P41143).
T4 construct: expressed in transfected cells
The experiment in a line: Binding assay, displacement of 125I-Deltorphin II (IC50hd).

In another experiment the target is T5, human δ receptors (Homo sapiens, UniProt P41143).
T5 construct: expressed in transfected cells
T5 sequence (P41143 whole entry): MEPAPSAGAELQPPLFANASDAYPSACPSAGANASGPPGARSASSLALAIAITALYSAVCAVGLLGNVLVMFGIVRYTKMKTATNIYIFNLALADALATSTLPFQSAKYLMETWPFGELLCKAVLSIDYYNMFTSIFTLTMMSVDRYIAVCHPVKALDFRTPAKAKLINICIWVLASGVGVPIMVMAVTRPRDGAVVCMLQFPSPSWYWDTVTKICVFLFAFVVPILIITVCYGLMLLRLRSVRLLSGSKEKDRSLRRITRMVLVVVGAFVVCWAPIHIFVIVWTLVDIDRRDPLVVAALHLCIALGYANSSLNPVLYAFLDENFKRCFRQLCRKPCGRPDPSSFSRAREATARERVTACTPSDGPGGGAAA
The experiment in a line: Human δ receptor functional assay, GTP[γ]35S binding. The format is biochemical. Particulars: for Emax: in relation to SNC80. As for the experimental part: as §1, with “(high). The Emax values were determined in relation to the standard δ agonist SNC80, i.e., higher than 100% is a compound that has better efficacy than SNC80.” for “(high).”
as §2

[2] abbreviates: human δ receptor, 293S cell membranes, read-out: IC50hd.
[3] abbreviates: human δ receptors expressed at higher levels, read-out: EC50h (high) Emax.
The mark [4] stands for this setting: human δ receptors expressed at higher levels, read-out: EC50h (high).
[5] abbreviates: human δ receptors expressed at lower levels, read-out: EC50h (low) Emax.
The mark [6] stands for this setting: EC50h (low), human δ receptors expressed at lower levels.

T1 sequence (P41145 whole entry): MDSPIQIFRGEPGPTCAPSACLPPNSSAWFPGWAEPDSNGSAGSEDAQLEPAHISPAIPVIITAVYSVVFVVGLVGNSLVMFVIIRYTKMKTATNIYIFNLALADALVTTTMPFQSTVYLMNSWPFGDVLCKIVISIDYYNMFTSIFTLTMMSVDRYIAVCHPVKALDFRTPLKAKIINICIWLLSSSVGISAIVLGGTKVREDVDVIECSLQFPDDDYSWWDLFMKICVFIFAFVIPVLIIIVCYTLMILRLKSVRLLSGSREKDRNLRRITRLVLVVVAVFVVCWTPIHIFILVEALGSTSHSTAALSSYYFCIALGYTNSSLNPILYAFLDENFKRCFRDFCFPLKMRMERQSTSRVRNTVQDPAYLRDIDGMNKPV
T3 sequence (P35372 whole entry): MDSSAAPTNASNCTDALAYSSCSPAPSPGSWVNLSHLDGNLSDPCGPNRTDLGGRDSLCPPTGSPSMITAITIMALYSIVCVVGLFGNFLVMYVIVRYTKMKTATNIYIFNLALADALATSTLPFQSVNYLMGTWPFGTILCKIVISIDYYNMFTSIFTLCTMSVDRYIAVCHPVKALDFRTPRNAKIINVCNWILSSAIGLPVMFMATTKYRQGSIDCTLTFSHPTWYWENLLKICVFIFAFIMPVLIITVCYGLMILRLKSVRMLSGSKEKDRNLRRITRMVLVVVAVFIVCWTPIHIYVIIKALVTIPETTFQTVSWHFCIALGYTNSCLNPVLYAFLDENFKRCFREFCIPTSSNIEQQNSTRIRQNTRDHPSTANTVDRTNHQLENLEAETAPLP
T4 sequence (P41143 whole entry): as the sequence (P41143 whole entry) above

For the compound `CCN(CC)C(=O)c1ccc([C@H](c2cccc(N)c2)N2CCN(Cc3ccc(F)cc3)CC2)cc1`, the IC50 on cloned human κ receptors came out at 5520 nM; on cloned human μ receptors, 715 nM; on cloned human δ receptors (setting [2]), 0.587 nM. Besides, the EC50 in experiment [1] came out at 22.8 nM; at human δ receptors (setting [4]) it was 4.18 nM; on human δ receptors (human δ receptors expressed at lower levels, read-out: EC50h (low)), 20.6 nM. The Emax in experiment [1] worked out at 130%; on human δ receptors (setting [3]), 104%; at human δ receptors (setting [5]), 95.3%.
For `CCN(CC)C(=O)c1ccc([C@@H](c2cccc(N)c2)N2CCN(Cc3ccc(F)cc3)CC2)cc1`, the figures for the IC50 on cloned human κ receptors, at cloned human μ receptors and at cloned human δ receptors (setting [2]) were more than 10000 nM, 3320 nM and 8.8 nM, respectively. The EC50 amounted to 466 nM in experiment [1] and 100 nM at human δ receptors (setting [4]). In addition, the Emax stood at 66.3% in experiment [1] and 89.1% on human δ receptors (setting [3]).
Turning to `CCN(CC)C(=O)c1ccc([C@H](c2cccc(N)c2)N2CCN(Cc3ccccc3F)CC2)cc1`, the IC50 was 7260 nM at cloned human κ receptors, 2260 nM at cloned human μ receptors and 0.717 nM on cloned human δ receptors. On human δ receptors (setting [6]), this compound gave an EC50 of 48.1 nM. For the same compound, the Emax at human δ receptors (setting [5]) was found to be 90%.
On the same counts, the results for `CCN(CC)C(=O)c1ccc([C@H](c2cccc(N)c2)N2CCN(Cc3cccc(F)c3)CC2)cc1` are 5770 nM, 2740 nM, 1.08 nM, 77.4 nM and 84.4%.
